Results published in patent US4590178A (Ajinomoto Company, Incorporated, priority 1982, dated 1986).

Key:
[1] = test system: spontaneously hypertensive rats; assay: Antihypertensive activity: systolic blood pressure measured indirectly on conscious SHR after peroral dosing; format: in vivo, rat; conditions: for Systolic Blood Pressure, Pretreatment: SHR (male, 13 months, 2 per sample), before 35 mg/kg peroral single dose; for Systolic Blood Pressure, 4 hrs after administration / Δ Blood Pressure: SHR; for Systolic Blood Pressure, 4 hrs after administration: 4 hours after 35 mg/kg peroral single dose; for Δ Blood Pressure: 4 hours after 35 mg/kg peroral single dose versus pretreatment
Protocol: The antihypertensive activity of part of the amino acid derivatives prepared above, was determined.
As subject animals 2 SHR were used which had been trained enough and been confirmed to be hypertensive spontaneously hypertensive rats (male, 13 months of age, the body weight of 400 to 440 g) per sample.
As an instrument for measuring the blood pressure a Programmed Electro-Sphygmomanometer PE-300 (Narco Co., U.S.A.) was used, and the blood pressure was indirectly measured on conscious rats.
An aqueous solution or suspension of a sample (35 mg/kg) was once force-fed into the stomach by means of a peroral probe.
An antihypertensive activity of part of the amino acid derivatives prepared above was determined.
As subject animals there were used 2 SHR which had been trained enough and been confirmed to be hypertensive spontaneously hypertensive rats (male, 13 months of age, the body weight of 400~440 g) per sample.
As an instrument for measuring the blood pressure there was used Programmed Electro-Sphygmomanometer PE-300 (Narco Co., U.S.A.), and the blood pressure was indirectly measured on conscious rats.
An antihypertensive activity of the product prepared above was determined.

[2] = 27.7° C.

Compound	Systolic Blood Pressure, Pretreatment [1]	Systolic Blood Pressure, 4 hrs after administration [1]	Δ Blood Pressure [1]	Median lethal dose (LD50) (mouse)	Median lethal dose (LD50) (rat)	.rho.Ka [2]
C[C@H](NP(=O)(OCc1ccccc1)OCc1ccccc1)C(=O)N1CCC[C@H]1C(=O)N1CCC[C@H]1C(=O)O [Example 84, Dibenzylphosphoryl-L-alanyl-L-propyl-L-proline in the crystalline form]	219 mm Hg	188 mm Hg	-31 mm Hg	more than 15 g/kg	more than 15 g/kg	3.92
C[C@H](NP(=O)(OCc1ccccc1)OCc1ccccc1)C(=O)N1CCC[C@H]1C(=O)N[C@@H](Cc1ccccc1)C(=O)O.N=C(N)NCCC[C@H](N)C(=O)O [Example 5, Dibenzylphosphoryl-L-alanyl-L-prolyl-L-phenylalanyl L-arginine salt]	188 mm Hg	173 mm Hg	-15 mm Hg	–	–	–
CCOP(=O)(CCc1ccccc1)N[C@@H](C)C(=O)N1CCC[C@H]1C(=O)N1CCC[C@H]1C(=O)[O-].[Na+] (stereo partly drawn) [Example 43, N--(O--ethyl-P--phenethylphosphonyl)-L-alanyl-L-prolyl-L-proline sodium salt]	195 mm Hg	171 mm Hg	-24 mm Hg	–	–	–
C[C@H](NP(=O)(CCc1ccccc1)OCc1ccccc1)C(=O)N1CCC[C@H]1C(=O)N1CCC[C@H]1C(=O)O.NC(N)=NCCC[C@H](N)C(=O)O (stereo partly drawn) [Example 27, N-(O-benzyl-P-phenethylphosphonyl)-L-alanyl-L-prolyl-L-proline L-arginine salt]	180 mm Hg	152 mm Hg	-28 mm Hg	–	–	–
O=C(O)[C@@H]1CCCN1C(=O)[C@@H]1CCCN1C(=O)[C@H](Cc1ccccc1)NP(=O)(Cc1ccccc1)Cc1ccccc1 [Example 20, Dibenzylphosphoryl-L-phenylalanyl-L-Prolyl-L-proline]	184 mm Hg	169 mm Hg	-15 mm Hg	–	–	–
Diethylphosphoryl-L-alanyl-L-prolyl-L-proline L-arginine salt [Example 25]	183 mm Hg	156 mm Hg	-27 mm Hg	–	–	–
Dibenzylphosphoryl-L-alanyl-N-(2-indanyl)-glycyl-L-proline L-arginine salt [Example 31]	199 mm Hg	169 mm Hg	-30 mm Hg	–	–	–
CCCCCP(=O)(O)N[C@@H](C)C(=O)N1CCC[C@H]1C(=O)N1CCC[C@H]1C(=O)[O-].CCCCCP(=O)(O)N[C@@H](C)C(=O)N1CCC[C@H]1C(=O)N1CCC[C@H]1C(=O)[O-].[Na+].[Na+] [Example 38, N-n-Amylphosphonyl-L-alanyl-L-prolyl-L-proline 2 sodium salt]	187 mm Hg	167 mm Hg	-20 mm Hg	–	–	–
CSCC[C@H](NP(=O)(CCc1ccccc1)OCc1ccccc1)C(=O)N1CCC[C@H]1C(=O)N1CCC[C@H]1C(=O)[O-].CSCC[C@H](NP(=O)(CCc1ccccc1)OCc1ccccc1)C(=O)N1CCC[C@H]1C(=O)N1CCC[C@H]1C(=O)[O-].[Ca+2] (stereo partly drawn) [Example 55, N-(O-Benzyl-P-phenethylphosphonyl)-L-methionyl-L-prolyl-L-proline calcium salt]	210 mm Hg	180 mm Hg	-30 mm Hg	–	–	–
Dibenzylphosphoryl-glycyl-L-prolyl-L-proline L-arginine salt [Example 19]	196 mm Hg	181 mm Hg	-15 mm Hg	–	–	–
Dibenzylphosphoryl-L-alanyl-L-prolyl-D-alanine L-arginine salt [Example 14]	183 mm Hg	161 mm Hg	-22 mm Hg	–	–	–
Dibenzylphosphoryl-L-alanyl-L-prolyl-L-aspartic acid L-arginine salt [Example 3]	208 mm Hg	197 mm Hg	-11 mm Hg	–	–	–
CCOP(=O)(CCc1ccccc1)N[C@@H](CCSC)C(=O)N1CCC[C@H]1C(=O)N1CCC[C@H]1C(=O)O.NC(N)=NCCC[C@H](N)C(=O)O (stereo partly drawn) [Example 40, N--(O--ethyl-P--phenethylphosphonyl)-L-methionyl-L-prolyl-L-proline L-arginine salt]	196 mm Hg	166 mm Hg	-30 mm Hg	–	–	–
C[C@H](NP(=O)(CCc1ccccc1)OCc1ccccc1)C(=O)N1CCC[C@H]1C(=O)N1CCC[C@H]1C(=O)OCc1ccccc1 (stereo partly drawn) [Example 26, N-(O-benzyl-P-phenethylphosphonyl)-L-alanyl-L-prolyl-L-proline benzylester]	182 mm Hg	160 mm Hg	-22 mm Hg	–	–	–
C[C@H](NP(=O)(OCc1ccccc1)OCc1ccccc1)C(=O)N1CCC[C@H]1C(=O)N[C@@H](CCCNC(=N)N)C(=O)O [Example 13]	181 mm Hg	162 mm Hg	-19 mm Hg	–	–	–
C[C@H](NP(=O)(O)OCc1ccccc1)C(=O)N1CCC[C@H]1C(=O)N1CCC[C@H]1C(=O)O.C[C@H](NP(=O)(O)OCc1ccccc1)C(=O)N1CCC[C@H]1C(=O)N1CCC[C@H]1C(=O)O.N.N [Example 57, Monobenzylphosphoryl-L-alanyl-L-propyl-L-proline diammonium salt]	195 mm Hg	167 mm Hg	-28 mm Hg	–	–	–
COC(=O)[C@@H]1CCCN1C(=O)[C@@H]1CCCN1C(=O)[C@H](C)NP(=O)([O-])CCc1ccccc1.[Na+] [Example 80, N-Phenethylphosphonyl-L-alanyl-L-prolyl-L-proline methylester sodium salt]	193 mm Hg	183 mm Hg	-10 mm Hg	–	–	–
O=C(O)CC[C@H](NP(=O)(OCc1ccccc1)OCc1ccccc1)C(=O)N1CCC[C@H]1C(=O)N1CCC[C@H]1C(=O)O [Example 22, Dibenzylphosphoryl-L-glutamyl-L-propyl-L-proline]	206 mm Hg	196 mm Hg	-10 mm Hg	–	–	–
CCOP(=O)(CCc1ccccc1)N[C@@H](CCCCN)C(=O)N1CCC[C@H]1C(=O)N1CCC[C@H]1C(=O)O.NC(N)=NCCC[C@H](N)C(=O)O (stereo partly drawn) [Example 37, N^α -(O-Ethyl-P-phenethylphosphonyl)-L-lysyl-L-prolyl-L-proline L-arginine salt]	201 mm Hg	172 mm Hg	-29 mm Hg	–	–	–
